In publication PMC7450057, “Enhancing intracellular accumulation and target engagement of PROTACs with reversible covalent chemistry” (Nature Communications, 2020):
Values joined by “and” are separate entries in the source; they are usually repeats but may differ in a detail not shown here. Equal values may be shown once.

Assays:
MOLM-14 cells = test: AlamarBlue cell viability assay, MOLM-14; conditions: Supplementary Figure 7, replicates
Experimental: The IC50 was calculated using GraphPad Prism software with a four-parameter dose-response curve fit.

BTK = BTK (Homo sapiens, UniProt Q06187); test: BTK degradation in MOLM-14 cells (western blot); type: cell-based; set-up: endogenous in cells; host or cells: MOLM-14; conditions: MOLM-14 cells, 200 nM, 24 h incubation
Chain of BTK (Q06187 whole entry): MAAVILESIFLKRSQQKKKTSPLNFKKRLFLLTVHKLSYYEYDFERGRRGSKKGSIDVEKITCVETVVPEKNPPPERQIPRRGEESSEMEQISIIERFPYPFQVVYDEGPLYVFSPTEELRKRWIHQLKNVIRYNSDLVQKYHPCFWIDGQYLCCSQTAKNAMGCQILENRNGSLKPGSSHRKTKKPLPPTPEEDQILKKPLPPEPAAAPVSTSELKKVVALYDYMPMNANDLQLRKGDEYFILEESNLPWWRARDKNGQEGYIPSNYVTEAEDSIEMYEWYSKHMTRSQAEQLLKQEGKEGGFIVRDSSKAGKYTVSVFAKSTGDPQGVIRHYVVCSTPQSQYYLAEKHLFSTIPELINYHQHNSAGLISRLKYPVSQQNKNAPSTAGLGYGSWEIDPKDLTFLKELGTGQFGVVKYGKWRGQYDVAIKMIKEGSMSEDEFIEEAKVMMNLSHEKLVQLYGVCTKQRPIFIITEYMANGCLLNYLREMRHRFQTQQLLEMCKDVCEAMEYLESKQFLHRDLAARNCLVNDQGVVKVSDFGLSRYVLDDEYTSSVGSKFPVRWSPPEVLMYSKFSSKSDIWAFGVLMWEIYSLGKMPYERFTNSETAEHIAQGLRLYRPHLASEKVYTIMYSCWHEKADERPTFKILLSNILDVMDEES

| Degradation at 200 nM (percentage of BTK degradation) (BTK) [%] | SMILES | Cell viability, MOML-14 (MOLM-14 cells; drug concentration 1.00E-05 M) | Cell viability, MOML-14 (MOLM-14 cells; drug concentration 1.60E-08 M) | Cell viability, MOML-14 (MOLM-14 cells; drug concentration 2.00E-06 M) | Cell viability, MOML-14 (MOLM-14 cells; drug concentration 3.20E-09 M) | Cell viability, MOML-14 (MOLM-14 cells; drug concentration 4.00E-07 M) | Cell viability, MOML-14 (MOLM-14 cells; drug concentration 6.40E-10 M) | Cell viability, MOML-14 (MOLM-14 cells; drug concentration 8.00E-08 M) |
| --- | --- | --- | --- | --- | --- | --- | --- | --- |
| 56 | CN(CCOCCOCCOCCNC(=O)CNc1cccc2c1C(=O)N(C1CCC(=O)NC1=O)C2=O)C(C)(C)C=C(C#N)C(=O)N1CCCC(n2nc(-c3ccc(Oc4ccccc4)cc3)c3c(N)ncnc32)C1 (stereo not shown) [RC-5] | 1.391 and 1.373 and 1.5492 and 0.5927 and 1.848 | 74.2327 and 92.4124 and 92.4946 and 100.939 and 90.3468 | 10.6332 and 11.0087 and 14.6588 and 13.2797 and 19.9049 | 91.6026 and 96.0448 and 87.3775 and 99.3838 and 93.8853 | 64.738 and 68.3352 and 96.2033 and 70.0311 and 76.4802 | 101.496 and 98.8968 and 89.2553 and 98.5858 and 94.7773 | 91.7317 and 86.3095 and 87.3482 and 74.3794 and 93.7562 |
| 15 | CN(CCCNc1cccc2c1C(=O)N(C1CCC(=O)NC1=O)C2=O)C(C)(C)C=C(C#N)C(=O)N1CCCC(n2nc(-c3ccc(Oc4ccccc4)cc3)c3c(N)ncnc32)C1 (stereo not shown) [RC-8] | 17.5563 and 16.7069 and 17.8914 and 20.4239 and 19.1771 | 123.954 and 125.216 and 128.45 and 118.008 and 115.826 | 51.2117 and 59.1288 and 59.5652 and 52.2481 and 61.4899 | 109.039 and 133.593 and 120.962 and 127.936 and 128.38 | 97.748 and 111.696 and 131.871 and 99.439 and 92.5349 | 132.113 and 115.156 and 99.1818 and 117.969 and 130.757 | 116.239 and 126.011 and 117.112 and 106.966 and 122.419 |
